# According to PMC3222680 (PLoS ONE, 2011):
# Key:
# αY27′A βWT GlyR = αY27′A βWT GlyR (Homo sapiens, UniProt P23415+P48167, Y307A)
# Protocol: (§1) The human GlyR α1 and β subunit cDNAs were subcloned into the pcDNA3.1zeo+ (Invitrogen) or pGEMHE [44] plasmid vectors for expression in HEK293 cells or Xenopus oocytes, respectively. Site-directed mutagenesis and chimera construction were performed using the QuickChange (Stratagene, La Jolla, CA, USA) mutagenesis and multiple-template-based sequential PCR protocols, respectively.
# (§2) The effects of the hyperekplexia-mimicking mutations, K24′A, V25′A and Y27′A, were examined on GlyRs expressed in HEK293 cells (ATCC). Details of the HEK293 cell culture, GlyR expression and electrophysiological recording of the HEK293 cells are described elsewhere. Briefly, HEK293 cells were maintained in DMEM supplemented with 10% fetal bovine serum. Cells were transfected using a calcium phosphate precipitation protocol. When co-transfecting the α1 together with the β or any other chimera subunits, their respective cDNAs were combined in a ratio of 1∶10. In addition, the pEGFP-N1 (Clontech) was co-transfected to facilitate identifying the transfected cells. […] Cells were treated with external Ringer's solution and internal CsCl solution [30]. Cells were voltage-clamped at −40 mV. When the heteromeric GlyRs were expressed, the picrotoxin sensitivity was tested to confirm that the majority of receptors are heteromers, [30].
# (§3) Results are expressed as mean±standard error of the mean of three or more independent experiments. […] Statistical significance was determined using the Student's t-test.
# αY27′A α-βWT GlyR = αY27′A α-βWT GlyR (Homo sapiens, UniProt P23415+P48167, Y307A)
# Protocol: as §1, §2, §3
# αWT β-αK24′A GlyR = molecular target: T1, αWT β-αK24′A GlyR (Homo sapiens, UniProt P23415+P48167, A275I/A296P/F268Y/G272Q/K304A/L286I/M270L/M271I/P292M/P300G/S295A/T277S/V266M/V273M/V282I); format: cell-based
# T1 construct: The α R218-Q219 and β R242-Q243 are also the joining sites for chimeras constructed between the ECD and TMD; expressed in transfected cells; host or cells: HEK293 (ATCC)
# T1 sequence (P23415 29-449 isoform P23415-2): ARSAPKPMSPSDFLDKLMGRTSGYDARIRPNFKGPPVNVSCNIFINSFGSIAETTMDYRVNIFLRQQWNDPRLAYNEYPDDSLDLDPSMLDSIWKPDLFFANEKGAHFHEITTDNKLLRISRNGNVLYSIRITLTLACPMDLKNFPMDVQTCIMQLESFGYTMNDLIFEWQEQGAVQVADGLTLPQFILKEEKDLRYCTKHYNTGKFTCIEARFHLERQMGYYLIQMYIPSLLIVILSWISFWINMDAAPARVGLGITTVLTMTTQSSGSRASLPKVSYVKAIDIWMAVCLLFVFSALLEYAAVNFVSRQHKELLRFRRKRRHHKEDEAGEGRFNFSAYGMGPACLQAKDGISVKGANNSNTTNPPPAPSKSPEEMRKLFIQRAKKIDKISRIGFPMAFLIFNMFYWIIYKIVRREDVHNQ
# T1 sequence (P48167+P23415 with tags, fused parts or gaps P48167:V266M/P48167:F268Y/P48167:M270L/P48167:M271I/P48167:G272Q/P48167:V273M/P48167:A275I/P48167:T277S/P48167:V282I/P48167:L286I/P48167:P292M/P48167:S295A/P48167:A296P/P48167:P300G/P23415:K304A): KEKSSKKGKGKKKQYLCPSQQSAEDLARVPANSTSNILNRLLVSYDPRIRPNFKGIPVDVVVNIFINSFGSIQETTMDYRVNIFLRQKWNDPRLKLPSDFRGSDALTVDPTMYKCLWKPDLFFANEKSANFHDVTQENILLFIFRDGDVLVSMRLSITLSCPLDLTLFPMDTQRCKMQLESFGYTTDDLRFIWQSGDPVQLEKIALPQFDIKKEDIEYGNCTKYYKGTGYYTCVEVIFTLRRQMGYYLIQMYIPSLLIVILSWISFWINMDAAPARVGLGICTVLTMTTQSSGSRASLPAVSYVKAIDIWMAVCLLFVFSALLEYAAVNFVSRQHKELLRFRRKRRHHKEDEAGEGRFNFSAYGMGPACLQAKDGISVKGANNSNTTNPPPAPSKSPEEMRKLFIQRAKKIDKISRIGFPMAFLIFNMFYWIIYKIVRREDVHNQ
# Protocol: as §1
# (§4) For the β-α chimeras used for determining the effect of hyperekplexia-mimicking mutations on α1 β GlyR channel function, the Thr at the M2 6′ position was replaced by a Cys. […] Through such a modification, picrotoxin resistance was used to distinguish the heteromeric α1 β-α GlyR from the homomeric α1 GlyR when the α1 and β-α subunits were co-expressed.
# as §2, §3
# αWT β-αY27′A GlyR = molecular target: T2, αWT β-αY27′A GlyR (Homo sapiens, UniProt P23415+P48167, A275I/A296P/F268Y/G272Q/L286I/M270L/M271I/P292M/P300G/S295A/T277S/V266M/V273M/V282I/Y307A); format: cell-based
# T2 construct: The α R218-Q219 and β R242-Q243 are also the joining sites for chimeras constructed between the ECD and TMD; expressed in transfected cells; host or cells: HEK293 cells (ATCC), pcDNA3.1zeo+
# T2 sequence (P23415 29-449 isoform P23415-2): T1 sequence (P23415 29-449 isoform P23415-2)
# T2 sequence (P48167+P23415 with tags, fused parts or gaps P48167:V266M/P48167:F268Y/P48167:M270L/P48167:M271I/P48167:G272Q/P48167:V273M/P48167:A275I/P48167:T277S/P48167:V282I/P48167:L286I/P48167:P292M/P48167:S295A/P48167:A296P/P48167:P300G/P23415:Y307A): T1 sequence (P48167+P23415 with tags, fused parts or gaps P48167:V266M/P48167:F268Y/P48167:M270L/P48167:M271I/P48167:G272Q/P48167:V273M/P48167:A275I/P48167:T277S/P48167:V282I/P48167:L286I/P48167:P292M/P48167:S295A/P48167:A296P/P48167:P300G/P23415:K304A) with A300K, Y303A
# Protocol: as §1, §4, §2, §3
# [1] = test system: chimera α–β or chimera β–α transfected alone; assay: Whole cell patch-clamp, chimeras transfected alone into HEK293 cells; format: cell-based, human; details: glycine up to 100 mM, data not shown
# Protocol: as §1, §2
# αY27′A β-αWT GlyR = αY27′A β-αWT GlyR (Homo sapiens, UniProt P23415+P48167, Y307A)
# Protocol: as §1, §4
# The effects of the hyperekplexia-mimicking mutations, K24′A, V25′A and Y27′A, were examined on GlyRs expressed in HEK293 cells (ATCC). Details of the HEK293 cell culture, GlyR expression and electrophysiological recording of the HEK293 cells are described elsewhere. Briefly, HEK293 cells were maintained in DMEM supplemented with 10% fetal bovine serum. Cells were transfected using a calcium phosphate precipitation protocol. […]
# as §3
# [2] = Hill coefficient of glycine-induced current
# [3] = αWT β-αK24′A, HEK293, with glycine at EC50 of α1 homomer
# [4] = αWT β-αY27′A, HEK293, with glycine at EC50 of α1 homomer
# Chain of αY27′A βWT GlyR (P23415 29-449 isoform P23415-2 Y307A limits assumed): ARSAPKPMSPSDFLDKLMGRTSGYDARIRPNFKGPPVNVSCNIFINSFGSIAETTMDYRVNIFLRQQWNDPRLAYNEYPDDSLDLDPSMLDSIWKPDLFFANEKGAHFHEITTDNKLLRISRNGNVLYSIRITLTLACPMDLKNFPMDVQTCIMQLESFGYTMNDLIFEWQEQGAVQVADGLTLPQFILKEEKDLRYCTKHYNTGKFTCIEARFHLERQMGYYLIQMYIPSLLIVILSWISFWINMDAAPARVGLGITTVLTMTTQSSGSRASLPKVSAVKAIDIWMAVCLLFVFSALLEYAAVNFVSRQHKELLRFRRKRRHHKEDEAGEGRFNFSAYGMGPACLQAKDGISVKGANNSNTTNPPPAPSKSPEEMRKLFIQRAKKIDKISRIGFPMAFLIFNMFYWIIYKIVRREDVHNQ
# Chain of αY27′A βWT GlyR (P48167 23-497): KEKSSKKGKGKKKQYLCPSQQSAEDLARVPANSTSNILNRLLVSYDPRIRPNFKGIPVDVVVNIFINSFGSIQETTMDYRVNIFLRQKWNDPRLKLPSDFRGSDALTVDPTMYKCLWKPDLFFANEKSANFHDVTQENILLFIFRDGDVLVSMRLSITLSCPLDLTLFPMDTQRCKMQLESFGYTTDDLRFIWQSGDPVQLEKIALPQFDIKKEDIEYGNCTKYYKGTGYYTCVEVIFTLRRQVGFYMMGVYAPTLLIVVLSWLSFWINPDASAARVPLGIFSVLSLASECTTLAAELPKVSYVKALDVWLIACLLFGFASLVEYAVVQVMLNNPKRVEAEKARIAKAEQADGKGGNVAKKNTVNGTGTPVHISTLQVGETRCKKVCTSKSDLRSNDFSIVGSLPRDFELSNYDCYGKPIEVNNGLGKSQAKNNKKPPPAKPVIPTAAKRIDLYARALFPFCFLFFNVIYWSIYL
# Chain of αY27′A α-βWT GlyR (P23415 29-449 isoform P23415-2 Y307A): as the sequence (P23415 29-449 isoform P23415-2 Y307A limits assumed) above
# Chain of αY27′A α-βWT GlyR (P23415+P48167 fused with the stated changes): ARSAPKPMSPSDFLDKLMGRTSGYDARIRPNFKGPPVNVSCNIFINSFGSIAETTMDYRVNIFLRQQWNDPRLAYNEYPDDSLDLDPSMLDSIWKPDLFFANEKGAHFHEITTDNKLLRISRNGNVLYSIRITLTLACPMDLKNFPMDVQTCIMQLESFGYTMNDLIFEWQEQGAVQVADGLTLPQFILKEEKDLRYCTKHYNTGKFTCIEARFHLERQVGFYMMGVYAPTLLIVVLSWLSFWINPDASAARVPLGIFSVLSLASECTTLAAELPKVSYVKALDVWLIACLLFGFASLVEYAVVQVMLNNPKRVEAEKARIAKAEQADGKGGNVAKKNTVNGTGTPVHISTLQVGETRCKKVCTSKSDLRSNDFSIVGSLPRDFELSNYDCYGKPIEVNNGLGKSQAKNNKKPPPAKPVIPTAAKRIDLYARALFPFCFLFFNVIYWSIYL
# Chain of αY27′A β-αWT GlyR (P23415 29-449 isoform P23415-2 Y307A): as the sequence (P23415 29-449 isoform P23415-2 Y307A limits assumed) above
# Chain of αY27′A β-αWT GlyR (P48167+P23415 fused with the stated changes): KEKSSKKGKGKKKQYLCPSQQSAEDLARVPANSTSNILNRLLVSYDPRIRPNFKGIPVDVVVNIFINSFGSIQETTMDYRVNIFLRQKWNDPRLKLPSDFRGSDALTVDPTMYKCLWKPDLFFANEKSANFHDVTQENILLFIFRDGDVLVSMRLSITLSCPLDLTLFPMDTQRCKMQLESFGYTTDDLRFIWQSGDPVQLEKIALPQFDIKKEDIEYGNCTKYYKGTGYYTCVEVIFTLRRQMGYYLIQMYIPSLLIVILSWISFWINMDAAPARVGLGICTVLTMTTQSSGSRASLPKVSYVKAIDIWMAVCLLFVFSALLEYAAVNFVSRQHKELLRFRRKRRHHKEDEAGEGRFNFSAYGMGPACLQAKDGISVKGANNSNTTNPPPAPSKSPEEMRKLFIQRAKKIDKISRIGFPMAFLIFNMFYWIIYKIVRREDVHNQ
Compound,nH (αY27′A βWT GlyR; [2]),Imax (αY27′A βWT GlyR; glycine-induced current),nH (αY27′A α-βWT GlyR; [2]),Imax (αY27′A α-βWT GlyR; glycine-induced current),Imax (αWT β-αK24′A GlyR),nH (αWT β-αK24′A GlyR),Imax (αWT β-αY27′A GlyR),nH (αWT β-αY27′A GlyR),current upon application of glycine [1],nH (αY27′A β-αWT GlyR; [2]),Imax (αY27′A β-αWT GlyR; glycine-induced current),10uM PTX inhibition (%) (αWT β-αK24′A GlyR; [3]),100uM PTX inhibition (%) (αWT β-αK24′A GlyR; [3]),10uM PTX inhibition (%) (αWT β-αY27′A GlyR; [4]),100uM PTX inhibition (%) (αWT β-αY27′A GlyR; [4])
NCC(=O)O [glycine],1.1±0.0,2.0±1.0 nA,0.78±0.03,5.7±1.3 nA,5.9±1.7 nA,1.5±0.3,6.5±1.6 nA,2.1±0.6,"neither chimera, when transfected alone into HEK293 cells, induced any current",1.0±0.1,1.3±0.3 nA,,,,
picrotoxin [PTX],,,,,,,,,,,,12.0±3.0%,31±3%,22±7%,48±4%
